Laboratory results: patent publication US10213449B2, “Compositions and methods for treating medulloblastoma” (The Board of Trustees of the Leland Stanford Junior …, priority 2016, dated 2019)
“Also recorded” adds a separate entry of the source.

Tests used:
[1] = test system: Medulloblastoma cell lines (MB53, MB55 and MB21 cells); experiment: Acquired resistance in medulloblastoma cell lines; type: cell-based, mouse; conditions: TBB 50 uM
Experimental: Medulloblastoma cell lines (MB53, MB55 and MB21 cells) were cultured in Neurobasal (Life Technologies 10888-022)+B27 supplement (Invitrogen 17504044)+DMSO (0.1%), CX-4945 (10 uM) or TBB (50 uM). […] Primer sequences are provided in supplemental table 5.

[2] = test system: Ptch+/−; Tpr53−/−; SmoD477G MB flank allografts; experiment: Flank allograft study, SMO inhibitor-resistant MB; type: in vivo, mouse
Experimental: (§1) In vivo efficacy studies were performed in accordance with protocols approved by the Institutional Animal Care and Use Committee at Stanford University. SmoWT-MB and Smo[…]-MB cells isolated from either parental SmoWT or Smo[…] mouse Ptch^+/-; p53^-/- MB hind-flank allografts were kindly provided by Charles Rudin (Memorial Sloan-Kettering Cancer Center). Ptch+/-; Tpr53-/-, or, Ptch+/-; Tpr53-/-; Smo[…] MB cells were mixed 1:1 with matrigel and 10^7 cells were injected into both flanks of a Nu/Nu mouse. Once tumors reached 225-275 mm^3, mice were randomized to treatment vs. control groups. Treatment groups received 30 mg/kg IP BID of TBB (reconstituted in DMSO at 50 ug/uL), or 37.5 mg/kg IP BID of GDC-0449 (reconstituted in DMSO at 62.5 ug/uL). Control mice were treated with an equivalent volume of DMSO. Corn oil was used in all groups to a total volume of 180 uL/injection and all doses were given with a 28 g insulin syringe. Tumors were measured and mice were weighed daily. Once tumors reached 1.5 cm^2 or met institutional euthanasia criteria, mice were sacrificed and tumors were harvested. Growth curves were generated using GraphPad Prism and significance was measured by two-way ANOVA.

[3] = test system: Hh signaling in Sufu−/− mouse embryonic fibroblasts; experiment: RT-qPCR of Gli1 in Sufu−/− MEFs (epistasis study); type: cell-based
Text: (§2) Epistasis studies were next performed to determine where in the hedgehog pathway CK2 acts. The effect of TBB was examined: (i) in NIH 3T3s stimulated with SAG, a SMO agonist, (ii) in Sufu−/− mouse embryonic fibroblasts (MEF), and (iii) in NIH 3T3 cells overexpressing GLI2 (FIG. 3d-3f).
(§3) Sufu^−/− MEFs (conditional deletion of exons 4-8) were kindly provided by Pao-Tien Chang (UCSF). SAG (S7779), GDC-0449 (Vismodegib, S1082) and CX-4945 (Silmitasertib, S2248) was purchased from SelleckChem.com. TBB was purchased from EMD (218697). Shh-N conditional medium was made using a HEK 293 cell line that stably secretes ShhN as previously described. Myc-GL12-DN (17649, pCS2-MT-GLI2-deltaN) plasmid was purchased from Addgene (Cambridge, Mass., USA). […]
(§4) NIH3T3s or SUFU−/− MEFs were plated in 6 well plates at 400,000 cells/well in 10% FBS media constituted of DMEM (Invitrogen11960-069) supplemented with 10% FBS (Hyclone Labs SH30070.02), pen/strep (Life Technologies 15140-122), sodium pyruvate (Invitrogen 11360-070) and glutamax (Invitrogen 35050-061). […] RNA was quantified on a nanodrop spectrophotometer (nanoddrop technologies ND-2000C). Transcript quantification was performed using a TaqMan RNA-to-Ct 1-Step Kit (Life technologies, 4392656) and the Applied Biosystems 7500 RT-PCR system as per the manufacturer's instructions. […]

[4] = test system: Hh signaling in NIH 3T3s stimulated with SAG; experiment: RT-qPCR of Gli1 in NIH 3T3s stimulated with SAG (epistasis study); type: cell-based, mouse; conditions: NIH 3T3s stimulated with SAG; dose-responsive
Experimental: as §2
NIH3T3s or SUFU−/− MEFs were plated in 6 well plates at 400,000 cells/well in 10% FBS media constituted of DMEM (Invitrogen11960-069) supplemented with 10% FBS (Hyclone Labs SH30070.02), pen/strep (Life Technologies 15140-122), sodium pyruvate (Invitrogen 11360-070) and glutamax (Invitrogen 35050-061). Cells were then starved in 0.5% FBS for 24 h prior to treatment with 25% ShhN conditioned media in 0.5% FBS+/− drug treatment. GliΔN were treated 48 h post transfection. Unless otherwise stated, all treatments were performed for 6 h. Cell lysis and RNA extraction was performed using Qiashredder homogenizers (Qiagen 79654) and RNEasy mini kits (qiagen 74104) as per manufacturer's instructions. RNA was quantified on a nanodrop spectrophotometer (nanoddrop technologies ND-2000C). Transcript quantification was performed using a TaqMan RNA-to-Ct 1-Step Kit (Life technologies, 4392656) and the Applied Biosystems 7500 RT-PCR system as per the manufacturer's instructions. […]

[5] = test system: Ptch+/−; Trp53−/− MB flank allografts; experiment: Flank allograft study, Ptch+/−; Trp53−/− MB; type: in vivo, mouse; conditions: TBB 30 mg/kg IP BID; effect as early as 3 days after initiating treatment; vs vehicle control
Experimental: as §1

[6] = test system: Gli2; experiment: Gli2 stability; type: cell-based, mouse
Experimental: as §2
Gli2ΔN cells were lysed with RIPA buffer (sc-24948, Santa Cruz Biotechnology) supplemented with Halt Protease & Phosphatase Inhibitor (Thermo #1861218) for 30 min on ice and lysates were cleared by centrifugation at 13000 rpm, 15 min at 4° C. Supernatants were incubated with 6× Lamelli sample buffer (10570021-1, BioWorld) at 95° C. for 5 min. The samples were then separated with a 7% SDS-PAGE gel and immunoblotted with anti-Gli2 (AF3635-SP, R&D) and anti-β-tubulin (ab6046, Abcam).

[7] = test system: Hh signaling in NIH 3T3 cells exposed to Shh; experiment: RT-qPCR of Hh target transcripts in Shh-stimulated NIH 3T3 cells; type: cell-based, mouse
Experimental: NIH3T3s or SUFU−/− MEFs were plated in 6 well plates at 400,000 cells/well in 10% FBS media constituted of DMEM (Invitrogen11960-069) supplemented with 10% FBS (Hyclone Labs SH30070.02), pen/strep (Life Technologies 15140-122), sodium pyruvate (Invitrogen 11360-070) and glutamax (Invitrogen 35050-061). Cells were then starved in 0.5% FBS for 24 h prior to treatment with 25% ShhN conditioned media in 0.5% FBS+/− drug treatment. GliΔN were treated 48 h post transfection. Unless otherwise stated, all treatments were performed for 6 h. Cell lysis and RNA extraction was performed using Qiashredder homogenizers (Qiagen 79654) and RNEasy mini kits (qiagen 74104) as per manufacturer's instructions. RNA was quantified on a nanodrop spectrophotometer (nanoddrop technologies ND-2000C). Transcript quantification was performed using a TaqMan RNA-to-Ct 1-Step Kit (Life technologies, 4392656) and the Applied Biosystems 7500 RT-PCR system as per the manufacturer's instructions. All primers were commercially available TaqMan® Gene Expression Assay probes purchased from Life Technologies (csnk2a1: Mm00786779_s1, csnk2a2: Mm01243455_m1, csnk2b: Mm00487216_m1, Gli1: Mm00494654_m1, Gli2: Mm.273292, Ccnd1: Mm.273049, Ptch: Mm00436047_m1).

[8] = test system: Hh signaling in NIH 3T3 cells overexpressing GLI2 (HA-Gli2ΔN); experiment: RT-qPCR of Gli1 in NIH 3T3 cells expressing Gli2ΔN (epistasis study); type: cell-based, mouse; conditions: 3T3 cells with forced expression of HA-Gli2ΔN
Text: as §2, §3, §4

[9] = NIH 3T3's following Hh stimulation

In the case of `Brc1c(Br)c(Br)c2[nH]nnc2c1Br` [TBB, 4,5,6,7-tetrabromo-2H-benzotriazole], the “surviving cells after 2 weeks of culture with drug” value [1] is reported as “MB55 TBB treated (50 uM) cells remained”, the “tumor growth of SmoD477G MB flank allografts” value ([2]; TBB 30 mg/kg IP BID or GDC-0449 37.5 mg/kg IP BID vs vehicle control) is reported as “near-complete cessation of tumor growth; also recorded: significant response” and the “BrdU incorporation in flank allografts” value ([2]; following TBB administration, relative to GDC-0449 and control treated mouse) is reported as “Decreased”. The “Gli1 mRNA / Gli transcript levels” value [3] was “substantially decreased; also recorded: dose dependent loss of Gli1 expression”, the “Gli1 mRNA levels (effect of inhibitor)” value [4] was “substantially decreased; also recorded: dose dependent loss of Gli1 expression” and the “MB flank allograft growth” value [5] was “significant inhibition; also recorded: decreased growth”. For the same molecule, the “GLI2 protein driven off the CMV promoter-expression vector” value ([6]; Gli2ΔN cells after TBB treatment) was “no decrease”, the “endogenous, full length Gli2 mRNA levels” value ([6]; after TBB treatment) was “decreases” and the Gli2 transcript levels [7, 9] was “effective at decreasing”. For the same molecule, the Ptch transcript levels [7, 9] was “effective at decreasing”, the “Gli1 mRNA levels” value ([7]; SHH ligand-induced NIH 3T3 cells, as early as 4 h post exposure) was “inhibited; also recorded: dramatic decrease; also recorded: loss of Gli1 induction” and the “Gli1 mRNA levels” value [8] was “inhibited; also recorded: dose dependent loss of Gli1 expression”.
